{"source": "patent US20110207154A1", "about": "“METHOD FOR DETERMINATION OF MARIN[…] AND COMPOUNDS […] SUCH METHOD” (SCOTT & WHITE HEALTHCARE, priority 2010, published 2011)", "test_system": "our antisera (rabbit polyclonal antisera against BSA-MBG conjugate)", "assay": "competition ELISA with rabbit polyclonal anti-MBG antisera", "format": "binding", "details": "competition assay", "protocol": "Initially, both BSA and BLG were employed as the carrier protein. In the former case, excess BSA was added to the reaction mixture to inhibit anti-BSA antibodies from binding to the conjugate. When the BLG-marinobufagenin congugate became available, BLG-marinobufagenin was used for antibody detection. This ELISA format was used as the basis for a competitive ELISA for the detection of marinobufagenin in body specimens.\nIn an alternative approach, rabbits were immunized with the BSA-MBG conjugate for the production of polyclonal antisera. […] The resulting polyclonal sera were assessed for the presence of MBG-specific antibodies by ELISA (FIG. 11). In this particular format, two of the rabbits produced a strong humoral immune response that allowed dilution of the primary (rabbit) antiserum down to 1 in 4*10^6, even when using a relatively insensitive photometric readout. […] This particular assay has now been equipped with a chemifluorescent readout (using commercially available reagents) and has now reached the target sensitivity of less than 10 pg MBG/ml. As expected, rat urine samples can be measured without prior treatment, but rat plasma and/or serum samples require solid phase extraction using a C8 solid phase and acetonitrile in the mobile phase. Upon drying the eluate of obtained from the extraction cartridge by vacuum centrifugation, MBG can be measured in the circulation of the rat."}
{"smiles": "C[C@]12CC[C@H](O)C[C@H]1CC[C@@H]1[C@@H]2CC[C@]2(C)[C@@H](c3ccc(=O)oc3)C[C@H]3O[C@]132", "note": "[RBG, resibufogenin]", "values": [{"measurement": "cross-reactivity with antisera", "result": "only measurable at extremely high doses"}]}
